Measured values as given in paper PMC7293270 (Scientific Reports, 2020).

Assays:
[1] = parameters: method as in earlier work; settings: cited from earlier work
[2] = tested on: portal vein tumor thrombosis; test: Retrospective review: PVTT recanalization in HCC patients treated with sorafenib plus conventional RT or SBRT; type: in vivo, human
Experimental: The need for informed consent was waived by the Institutional Review Board of the Far Eastern Memorial Hospital (FEMH-IRB-108025-E) and retrospective data were collected after receiving approval from the Institutional Review Board of the Far Eastern Memorial Hospital (FEMH-IRB-108025-E). All research was performed in accordance with relevant guidelines and regulations. All tumors were staged according to the American Joint Committee on Cancer (AJCC) Cancer Staging Manual, 7th edition. A total of 90 HCC patients with PVTT were identified. […] The patients who were treated with a radiation fraction size of <5 Gy and those treated with ≥5 Gy were grouped as the conventional and the SBRT group, respectively.

[3] = cited from earlier work
[4] = Plasma pharmacokinetics of sorafenib with RT, with or without CsA pretreatment, in freely moving rats; type: in vivo, Sprague-Dawley rats; settings: for Cmax / Tmax / AUC(0-t): Sprague-Dawley, rat, plasma, 40 mg/kg
Experimental: A freely moving rat model was designed for the current study[21] (Fig. 1A). Experimental rats were anesthetized with 1 g/mL urethane and 0.1 g/mL α-chloralose (1 mL/kg by intraperitoneal [i.p.] injection), and polyethylene tubes were then implanted in the right jugular vein for intravenous (i.v.) fluid administration. The right jugular vein was catheterized for blood sampling. The catheter traversed the subcutaneous tissue and was fixed in the dorsal neck region. After surgery, the rats were placed in an experimental cage and allowed to recover for 1 day. During the recovery period, the rats were kept warm under a light. Then, the rats were anesthetized and immobilized on a board while undergoing CT for localization of the whole liver (conventional technique, Fig. 1B) or a central area of 1.5 × 1.5 cm (SBRT technique, Fig. 1C).
The rats were randomly divided into five groups of six rats per group.
The rats were pretreated with CsA (20 mg/kg, i.p.). […] Blood samples were obtained according to a preset schedule.
Blood samples (150 µL) were withdrawn from the jugular vein with a fraction collector at 15, 30, 45, and 60 min and at 1.5, 2, 2.5, 3, 3.5 and 4 hr after drug administration. The blood samples were immediately centrifuged at 4200 × g for 10 min. The resulting plasma (50 µL) was added to 1 mL of ethyl acetate in a clean tube, vortexed for 5 min, and centrifuged at 5900 × g for 10 min. After centrifugation, the upper organic layer containing ethyl acetate was transferred to a new tube and evaporated to dryness under a nitrogen flow.
Chromatographic analysis was performed on a Model LC-20DAD HPLC system (Shimadzu, Tokyo, Japan) equipped with a Model SPD-M20A wavelength UV detector, a SIL-20AC autosampler, and an LC Solution data processing system. A […] C[18] column (50 × 2.1 mm, particle size 1.7 μm, Eclipse XDB; Agilent, Palo Alto, CA, USA) was used for HPLC separation. The mobile phase consisted of potassium dihydrogen phosphate (10 mM, pH = 3) and acetonitrile (55:45, v/v). The flow rate was set at 0.2 mL/min, and the injection volume was 5 μL. […] A peak controlled spectrum recording was selected with a range of 190–300 nm.
Pharmacokinetic parameters, including the area under the concentration vs. time curve (AUC), terminal elimination phase t1/2, Cmax, MRT, total plasma clearance and Vss, were calculated using the PK calculation software WinNonlin Standard Edition, version 1.1 (Scientific Consulting, Apex, NC, USA) using a compartmental method.

efflux transporter P-gp = settings: cited from earlier work
[5] = Organ distribution of sorafenib in rats; type: in vivo, Sprague-Dawley rats; settings: for concentration at 6 h: Sprague-Dawley, rat, po, 40 mg/kg
Experimental: The brain, liver, heart, spleen, lung and kidney were collected and weighed. These collected samples were stored at −20 °C until analysis.
Thawed organ samples were homogenized in 50% aqueous acetonitrile (sample weight:volume ratio, 1:5), and the homogenate was then centrifuged at 13000 × g for 10 min at 4 °C. The supernatant was collected, placed in brown Eppendorf tubes, and stored at −20 °C until analysis. In brief, each organ sample (50 μL) was combined with 150 μL of IS solution (diethylstilbestrol) for protein precipitation. Finally, 20 μL of filtrate was injected into the HPLC system for analysis.

HCC = settings: cited from earlier work
[6] = sorafenib + SBRT (fraction size ≥ 5 Gy), n = 18
[7] = sorafenib + conventional RT (fraction size <5 Gy), n = 25
[8] = oral, CsA 20 mg/kg i.p. + RT2Gy, sorafenib 40 mg/kg 1 hr later
[9] = oral, CsA 20 mg/kg i.p. + RT2Gy, sorafenib 40 mg/kg 24 hr later
[10] = oral, CsA 20 mg/kg i.p. + RT9Gy, sorafenib 40 mg/kg 1 hr later
[11] = oral, CsA 20 mg/kg i.p. + RT9Gy, sorafenib 40 mg/kg 24 hr later
[12] = oral, CsA 20 mg/kg i.p. + sorafenib 40 mg/kg
[13] = po, RT2Gy, sorafenib 40 mg/kg 1 hr later
[14] = po, RT2Gy, sorafenib 40 mg/kg 24 hr later
[15] = po, RT9Gy, sorafenib 40 mg/kg 1 hr later
[16] = po, RT9Gy, sorafenib 40 mg/kg 24 hr later
[17] = po, sorafenib 40 mg/kg p.o. only (sham RT), rats

For `CNC(=O)c1cc(Oc2ccc(NC(=O)Nc3ccc(Cl)c(C(F)(F)F)c3)cc2)ccn1` [sorafenib, Sorafenib], the “Permeability across the gastrointestinal (GI) epithelium” value [1] is listed as “high”, the “No response (recanalization)” value [2, 6] is listed as 1/18 (5.6%) and the Partial recanalization [2, 6] is listed as 12/18 (66.7%). The “Increase in complete recanalization, SBRT vs conventional RT” value ([2]; sorafenib + SBRT compared to sorafenib + conventional RT) was 3 fold, the “No response (recanalization)” value [2, 7] was 10/25 (40.0%) and the Partial recanalization [2, 7] was 13/25 (52.0%). For the same molecule, the “Reduction of AUC” value ([3]; average, concomitant administration of the CYP3A4 inducer rifampicin) was 37%, the “Orally administered dose recovered as unchanged drug” value ([3]; by biliary excretion or lack of absorption) was “Approximately 50%” and the Cmax [4, 8] was 1720 ± 960 ng/mL. It also gave a Tmax [4, 8] of 3.3 h, a Cmax [4, 9] of 7710 ± 3410 ng/mL and a Tmax [4, 9] of 3.75 h. It also gave a Cmax [4, 10] of 3740 ± 2170 ng/mL, a Tmax [4, 10] of 3.33 h and a Cmax [4, 11] of 5430 ± 3220 ng/mL. The Tmax [4, 11] was 3.92 h, the Cmax [4, 12] was 4690 ± 2310 ng/mL and the Tmax [4, 12] was 4 h. The Cmax [4, 13] was 10100 ± 5930 ng/mL, the Tmax [4, 13] was 2.92 h and the Cmax [4, 14] was 1890 ± 1080 ng/mL. The Tmax [4, 14] was 3.4 h, the AUC(0-t) ([4]; po, RT2Gy, sorafenib 40 mg/kg p.o. 1 hr later) was 27800 ng·h/mL and the AUC(0-t) ([4]; po, RT2Gy, sorafenib 40 mg/kg p.o. 24 hr later) was 4950 ng·h/mL. It also gave a Cmax [4, 15] of 12300 ± 6300 ng/mL, a Tmax [4, 15] of 3.25 h and a Cmax [4, 16] of 8690 ± 2730 ng/mL. The Tmax [4, 16] was 3.08 h, the AUC(0-t) ([4]; po, RT9Gy, sorafenib 40 mg/kg p.o. 1 hr later) was 31500 ng·h/mL and the AUC(0-t) ([4]; po, RT9Gy, sorafenib 40 mg/kg p.o. 24 hr later) was 24300 ng·h/mL. The AUC(0-t) ([4]; po, CsA 20 mg/kg i.p. + RT2Gy, sorafenib 40 mg/kg p.o. 1 hr later) was 4630 ng·h/mL, the AUC(0-t) ([4]; po, CsA 20 mg/kg i.p. + RT2Gy, sorafenib 40 mg/kg p.o. 24 hr later) was 18600 ng·h/mL and the AUC(0-t) ([4]; po, CsA 20 mg/kg i.p. + RT9Gy, sorafenib 40 mg/kg p.o. 1 hr later) was 10100 ng·h/mL. For the same molecule, the AUC(0-t) ([4]; po, CsA 20 mg/kg i.p. + RT9Gy, sorafenib 40 mg/kg p.o. 24 hr later) was 12900 ng·h/mL, the AUC(0-t) ([4]; po, CsA 20 mg/kg i.p. + sorafenib 40 mg/kg p.o.) was 13100 ng·h/mL and the AUC(0-t) [4, 17] was 12000 ng·h/mL. For the same molecule, the Cmax [4, 17] was 4390 ± 2280 ng/mL, the Tmax [4, 17] was 3.75 h and the “Increase in concentration of sorafenib” value ([4]; both concurrent and sequential RT9Gy regimens compared with sorafenib alone) was “more than 2 fold”. The “Binding to P-gp” value (efflux transporter P-gp) was “moderate affinity”, the P-gp substrate affinity (efflux transporter P-gp) was “moderate-affinity” and the “Organ distribution vs sham group” value ([5]; RT2Gy and RT9Gy under the sequential regimen) was “did not differ significantly”. The “Level of sorafenib in organs vs sham group” value ([5]; RT9Gy concurrent with sorafenib, all organs except the brain) was “significantly decreased”, the concentration at 6 h ([5]; brain) was 140 ± 150 ng/g and the concentration at 6 h ([5]; heart) was 1200 ± 360 ng/g. It also gave a concentration at 6 h ([5]; kidney) of 1930 ± 750 ng/g, a concentration at 6 h ([5]; liver) of 4430 ± 1560 ng/g and a concentration at 6 h ([5]; lung) of 3200 ± 1000 ng/g. The concentration at 6 h ([5]; spleen) was 1420 ± 530 ng/g, the “Complete or partial response rate” value (HCC; HCC patients, combination of sorafenib and RT) was 55% and the “Reduction of HCC tumor volume” value (HCC; case report, sorafenib + RT combination regimen) was 39%.
